Calls of active or inactive are those of the source.
How the values were obtained:
[1] = target: Cytochrome P450 2D6 (Homo sapiens, UniProt P10635);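 note: CYP2D6 member of a cytochrome P450 panel assay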
[2] = target: Cytochrome P450 2C9 (Homo sapiens, UniProt P11712)
[3] = viability of uninfected HEp-2 cells – cell-based, HTS, cytotoxicity control for RSV inhibitor project, dose response (AID 2410); format: functional; details: human respiratory syncytial virus
[4] = target: T1, Rac GTPase-activating protein 1 (Homo sapiens, UniProt Q9H0H5); test: blockers of MgcRacGAP-driven Rac1 GTP hydrolysis – biochemical, ADP Hunter fluorescence, primary and confirmatory, confirmation (AID 624330); format: functional
T1 sequence (Q9H0H5 whole entry): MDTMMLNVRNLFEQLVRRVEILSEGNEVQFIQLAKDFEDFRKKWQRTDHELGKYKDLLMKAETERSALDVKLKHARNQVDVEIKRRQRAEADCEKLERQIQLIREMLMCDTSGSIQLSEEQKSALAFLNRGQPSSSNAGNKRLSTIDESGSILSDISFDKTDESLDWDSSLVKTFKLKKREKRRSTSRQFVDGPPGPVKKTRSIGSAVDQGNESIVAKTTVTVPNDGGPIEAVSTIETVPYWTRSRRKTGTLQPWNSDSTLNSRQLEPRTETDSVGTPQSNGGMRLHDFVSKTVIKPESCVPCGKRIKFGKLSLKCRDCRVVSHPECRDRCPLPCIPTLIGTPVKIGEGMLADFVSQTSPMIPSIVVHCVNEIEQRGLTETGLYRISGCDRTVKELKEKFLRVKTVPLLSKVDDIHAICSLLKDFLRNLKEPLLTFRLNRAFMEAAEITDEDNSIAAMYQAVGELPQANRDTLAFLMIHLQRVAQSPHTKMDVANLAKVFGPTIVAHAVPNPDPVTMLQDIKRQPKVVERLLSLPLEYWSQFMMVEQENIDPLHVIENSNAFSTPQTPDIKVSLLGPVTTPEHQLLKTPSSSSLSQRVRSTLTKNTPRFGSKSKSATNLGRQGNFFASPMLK

[5] = target: T2, Streptokinase A (Streptococcus pyogenes serotype M1, UniProt P10520); test: viability-normalized secreted streptokinase activity reduction – plasminogen activation absorbance, OD405, dose response (AID 1914); format: functional, Streptococcus pyogenes M1 GAS;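 note: secreted streptokinase activity via plasminogen activation per viability signal from cell pellet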
T2 sequence (P10520 whole entry): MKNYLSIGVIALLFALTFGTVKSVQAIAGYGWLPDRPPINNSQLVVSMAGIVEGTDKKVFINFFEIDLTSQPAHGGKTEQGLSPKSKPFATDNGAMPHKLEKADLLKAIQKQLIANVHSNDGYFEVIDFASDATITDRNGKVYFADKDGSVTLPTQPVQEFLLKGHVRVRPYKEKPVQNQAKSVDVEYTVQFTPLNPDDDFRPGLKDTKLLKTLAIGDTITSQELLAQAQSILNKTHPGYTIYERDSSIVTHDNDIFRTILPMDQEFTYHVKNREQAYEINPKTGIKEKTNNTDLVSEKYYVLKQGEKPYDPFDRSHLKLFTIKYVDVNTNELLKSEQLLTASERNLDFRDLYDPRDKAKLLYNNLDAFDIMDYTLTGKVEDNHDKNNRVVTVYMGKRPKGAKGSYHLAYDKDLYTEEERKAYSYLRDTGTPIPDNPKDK

[6] = tested on: Streptococcus; test: GAS UMAA2166 growth inhibition – luminescence, BacTiterGlo, counter-screen for streptokinase expression inhibitor project, dose response (AID 1915); format: functional, organism-based;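 note: potency for reduction of bacterial viability or growth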
[7] = tested on: Streptococcus sp. 'group A'; test: Streptococcus pyogenes SK(-)GAS viability under kanamycin – luminescence, BacTiterGlo, confirmation, counter-screen for streptokinase expression inhibitor project, dose response (AID 1900); format: functional, organism-based
[8] = NIH3T3 cell viability loss – ATP luminescence, mouse fibroblasts, counter-screen, dose response (AID 2010); format: functional, cell-based;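 note: cells exposed to compound for about 90 hours before reading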
[9] = Trypanosoma cruzi growth suppression in host cells – NIH3T3 host cells, beta-gal luminescence, confirmation (AID 2044); format: functional, cell-based;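 note: intracellular parasites grown in NIH/3T3 mouse fibroblasts as host cells; luminescent beta-galactosidase reporter signal from transgenic T. cruzi replicating inside host cells; inhibitors lower the luminescence signal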
[10] = target: Cytochrome P450 3A4 (Homo sapiens, UniProt P08684);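 note: CYP3A4 tested as one member of a cytochrome P450 panel screen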
Sequence of Cytochrome P450 3A4 (P08684 whole entry): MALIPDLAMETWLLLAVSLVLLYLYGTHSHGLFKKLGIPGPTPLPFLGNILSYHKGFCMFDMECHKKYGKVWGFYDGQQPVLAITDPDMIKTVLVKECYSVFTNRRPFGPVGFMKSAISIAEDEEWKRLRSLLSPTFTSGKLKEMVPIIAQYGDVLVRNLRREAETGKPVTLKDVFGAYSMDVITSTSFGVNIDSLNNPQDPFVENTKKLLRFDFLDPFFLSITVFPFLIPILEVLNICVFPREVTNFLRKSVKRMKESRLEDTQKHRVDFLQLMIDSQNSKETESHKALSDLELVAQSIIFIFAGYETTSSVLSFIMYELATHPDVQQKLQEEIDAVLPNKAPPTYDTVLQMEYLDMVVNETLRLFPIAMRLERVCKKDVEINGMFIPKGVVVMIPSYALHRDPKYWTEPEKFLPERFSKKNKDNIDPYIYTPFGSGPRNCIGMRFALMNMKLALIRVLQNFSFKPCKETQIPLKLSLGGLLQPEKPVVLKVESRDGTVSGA

[11] = target: Cytochrome P450 2C19 (Homo sapiens, UniProt P33261); test: Cytochrome panel assay with activity outcomes. Panel member name: p450-cyp2c19 Compounds with AC50 equal or less than 10 uM are considered active; format: functional; details: read-out: AC50
Sequence of Cytochrome P450 2C19 (P33261 whole entry): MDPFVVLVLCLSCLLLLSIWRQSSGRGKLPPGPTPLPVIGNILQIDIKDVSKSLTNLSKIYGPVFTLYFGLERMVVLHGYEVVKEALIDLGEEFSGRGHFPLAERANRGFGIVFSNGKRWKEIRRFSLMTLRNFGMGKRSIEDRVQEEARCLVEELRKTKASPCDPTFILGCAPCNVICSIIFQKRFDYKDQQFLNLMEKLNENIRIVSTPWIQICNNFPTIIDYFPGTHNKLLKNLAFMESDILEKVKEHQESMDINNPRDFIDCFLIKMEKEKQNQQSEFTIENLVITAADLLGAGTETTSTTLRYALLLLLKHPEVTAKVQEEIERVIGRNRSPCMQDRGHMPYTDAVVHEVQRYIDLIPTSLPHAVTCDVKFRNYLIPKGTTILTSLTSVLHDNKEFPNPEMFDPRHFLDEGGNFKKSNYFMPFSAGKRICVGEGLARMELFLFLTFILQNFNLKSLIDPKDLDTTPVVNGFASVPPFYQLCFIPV

[12] = target: T3, Protein RecA (Mycobacterium tuberculosis, UniProt P9WHJ3); test: Fluorescence Cell-Free Homogeneous Dose Retest to Identify Inhibitors of RecA-Intein Splicing Activity. [Related pubchem assays (depositor defined):AID2097, AID2223, AID489010, AID492950]; format: functional
T3 sequence (P9WHJ3 whole entry): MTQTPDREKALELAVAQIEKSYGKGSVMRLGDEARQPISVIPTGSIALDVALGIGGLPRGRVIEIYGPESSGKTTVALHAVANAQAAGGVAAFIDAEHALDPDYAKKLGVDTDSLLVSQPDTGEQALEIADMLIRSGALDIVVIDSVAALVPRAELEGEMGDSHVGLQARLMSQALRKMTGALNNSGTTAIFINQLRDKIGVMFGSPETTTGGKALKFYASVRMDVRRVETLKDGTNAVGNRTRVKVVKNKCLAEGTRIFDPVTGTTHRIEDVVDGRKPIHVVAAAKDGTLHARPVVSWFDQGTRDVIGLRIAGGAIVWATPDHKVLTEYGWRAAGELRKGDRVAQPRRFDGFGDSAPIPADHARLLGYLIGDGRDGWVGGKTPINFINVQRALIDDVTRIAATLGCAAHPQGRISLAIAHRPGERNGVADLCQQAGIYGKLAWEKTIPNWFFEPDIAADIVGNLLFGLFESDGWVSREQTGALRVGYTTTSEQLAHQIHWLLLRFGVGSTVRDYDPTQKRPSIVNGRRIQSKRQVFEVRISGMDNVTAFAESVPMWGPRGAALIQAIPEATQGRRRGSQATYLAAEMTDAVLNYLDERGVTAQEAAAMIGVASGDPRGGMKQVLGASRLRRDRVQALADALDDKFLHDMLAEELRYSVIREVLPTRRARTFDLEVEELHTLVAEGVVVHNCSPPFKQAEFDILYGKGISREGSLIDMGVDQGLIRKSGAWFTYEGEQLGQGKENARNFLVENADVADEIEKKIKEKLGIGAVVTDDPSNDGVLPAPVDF

[13] = target: T4, Replicative DNA helicase DnaB (Mycobacterium tuberculosis, UniProt P9WMR3); test: DnaB intein splicing inhibitors, dose response, biochemical, cell-free fluorescence (AID 449749); format: functional
T4 sequence (P9WMR3 whole entry): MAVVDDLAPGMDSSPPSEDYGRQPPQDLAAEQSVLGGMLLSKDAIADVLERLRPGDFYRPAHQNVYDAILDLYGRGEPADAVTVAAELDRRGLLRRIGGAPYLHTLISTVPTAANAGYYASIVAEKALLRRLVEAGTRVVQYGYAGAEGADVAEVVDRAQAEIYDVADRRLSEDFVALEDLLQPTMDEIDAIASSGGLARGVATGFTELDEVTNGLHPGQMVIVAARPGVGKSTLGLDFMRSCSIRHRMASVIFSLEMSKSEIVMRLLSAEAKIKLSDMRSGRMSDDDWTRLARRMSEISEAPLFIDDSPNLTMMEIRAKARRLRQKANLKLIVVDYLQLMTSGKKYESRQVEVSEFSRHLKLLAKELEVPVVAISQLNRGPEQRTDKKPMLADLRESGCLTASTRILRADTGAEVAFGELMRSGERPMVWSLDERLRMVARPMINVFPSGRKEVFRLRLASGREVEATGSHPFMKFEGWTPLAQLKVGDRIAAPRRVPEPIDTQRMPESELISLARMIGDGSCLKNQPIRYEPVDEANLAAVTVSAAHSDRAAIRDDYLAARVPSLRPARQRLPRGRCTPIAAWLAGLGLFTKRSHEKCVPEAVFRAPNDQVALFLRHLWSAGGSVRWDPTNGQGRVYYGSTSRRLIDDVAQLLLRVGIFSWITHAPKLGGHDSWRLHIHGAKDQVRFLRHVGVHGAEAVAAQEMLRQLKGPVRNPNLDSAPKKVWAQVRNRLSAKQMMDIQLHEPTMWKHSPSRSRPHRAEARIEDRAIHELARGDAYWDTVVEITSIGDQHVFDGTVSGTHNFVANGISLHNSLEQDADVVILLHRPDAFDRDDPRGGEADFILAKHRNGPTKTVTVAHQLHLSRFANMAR

Sequence of Cytochrome P450 2C9 (P11712 whole entry): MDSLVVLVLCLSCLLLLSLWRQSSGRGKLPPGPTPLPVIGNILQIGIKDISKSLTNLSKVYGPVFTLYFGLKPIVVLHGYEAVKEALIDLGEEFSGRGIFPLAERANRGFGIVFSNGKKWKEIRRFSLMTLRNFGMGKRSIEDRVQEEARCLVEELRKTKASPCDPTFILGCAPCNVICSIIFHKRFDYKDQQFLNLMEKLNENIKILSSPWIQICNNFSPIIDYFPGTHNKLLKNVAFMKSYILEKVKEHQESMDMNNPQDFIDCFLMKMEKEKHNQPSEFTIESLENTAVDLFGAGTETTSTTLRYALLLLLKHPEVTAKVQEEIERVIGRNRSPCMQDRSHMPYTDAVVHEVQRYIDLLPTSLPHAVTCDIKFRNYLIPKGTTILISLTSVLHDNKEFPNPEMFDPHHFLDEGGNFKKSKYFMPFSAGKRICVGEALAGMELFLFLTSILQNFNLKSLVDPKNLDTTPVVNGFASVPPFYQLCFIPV
Sequence of Cytochrome P450 2D6 (P10635 whole entry): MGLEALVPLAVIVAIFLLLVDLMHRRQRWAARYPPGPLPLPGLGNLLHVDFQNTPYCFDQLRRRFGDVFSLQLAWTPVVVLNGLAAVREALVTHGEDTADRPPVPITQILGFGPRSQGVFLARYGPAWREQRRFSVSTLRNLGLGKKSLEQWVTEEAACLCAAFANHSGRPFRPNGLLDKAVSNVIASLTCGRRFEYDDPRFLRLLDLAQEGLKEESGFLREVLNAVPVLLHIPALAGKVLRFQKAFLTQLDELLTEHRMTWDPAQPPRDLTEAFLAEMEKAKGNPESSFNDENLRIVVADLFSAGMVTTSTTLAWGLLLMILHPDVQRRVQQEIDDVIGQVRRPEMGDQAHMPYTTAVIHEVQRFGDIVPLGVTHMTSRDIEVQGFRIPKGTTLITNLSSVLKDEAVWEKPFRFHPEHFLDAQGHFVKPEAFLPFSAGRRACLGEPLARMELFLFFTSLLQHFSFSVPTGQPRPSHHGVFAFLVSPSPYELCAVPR

Compound: Clc1ccccc1-c1nc(Nc2ccncc2)c2ccccc2n1
- AC50 [1]: 39.8 µM (inconclusive)
- AC50 [2]: 1.58 µM (inconclusive)

Compound: CCOC(=O)C1=C(O)c2ccccc2C(=O)/C1=C\c1ccc(C)cc1
- CC50 [3]: 31.5 µM (active)

Compound: O=c1c2ccccc2nc(/C=C/c2ccc(O)c(O)c2)n1-c1ccccc1
- IC50 [4]: 73.9 µM (active)

Compound: COc1ccccc1NS(=O)(=O)c1cccc(C(=O)OCC(=O)Nc2cc(C)on2)c1
- AC50 [1]: 31.6 µM (inconclusive)
- AC50 [2]: 12.6 µM (inconclusive)

Compound: Cc1ccccc1-c1nccc(Nc2ccc(F)cc2)n1
- AC50 [1]: 20 µM (inconclusive)

Compound: Cc1ccc2nc(Nc3ccc(Cl)cc3)c3nncn3c2c1
- CC50 [3]: 34.4 µM (active)

Compound: O=C(c1cc(S(=O)(=O)N2CCOCC2)ccc1F)N(CCc1ccccc1)Cc1ccccc1
- CC50 [3]: 29.8 µM (active)

Compound: O=C(Nc1cccc(-c2nnc(-c3ccccc3)o2)c1)c1ccc(Br)o1
- EC50 [5]: > 150 µM (not active)
- EC50 [6]: 14.2 µM (active)
- EC50 [7]: 9.53 µM (active)

Compound: CN1c2ccccc2C(C)(C)[C@]12C=Cc1cc(O)ccc1O2
- CC50 [3]: 7.32 µM (active)

Compound: Brc1ccc(-c2cn3c(n2)CCc2ccc4cccnc4c2-3)cc1
- EC50 [5]: 23.8 µM (active)
- EC50 [6]: > 150 µM (not active)
- EC50 [7]: 4.51 µM (active)

Compound: CC1=NN(C(=Nc2ccc(C(C)(C)C)cc2)Nc2nnc(C)s2)[C@H](c2ccc(C)cc2)S1
- EC50 [8]: > 60 µM (not active)
- EC50 [5]: 13.9 µM (active)
- EC50 [6]: > 150 µM (not active)
- EC50 [7]: 8.28 µM (active)
- EC50 [9]: 1.85 µM (active)

Compound: COc1ccccc1-c1nc(NCCN2CCOCC2)c2ccccc2n1
- AC50 [1]: 31.6 µM (inconclusive)
- AC50 [10]: 31.6 µM (inconclusive)

Compound: Oc1ccccc1-[n+]1c(-c2ccccc2)cc(-c2ccccc2)cc1-c1ccccc1.[O-][Cl+3]([O-])([O-])[O-]
- CC50 [3]: 11.7 µM (active)

Compound: COCCn1c(N)c(C(=O)NS(=O)(=O)c2ccc(C)cc2)c(=O)[nH]c1=O
- EC50 [5]: > 150 µM (not active)
- EC50 [6]: > 150 µM (not active)
- EC50 [7]: > 150 µM (not active)

Compound: C[C@@H]1CC[C@@]2(OC1)O[C@H]1C[C@H]3[C@@H]4CC=C5C[C@@H](O)[C@H](O)C[C@]5(C)C4CC[C@]3(C)[C@H]1[C@@H]2C (stereo partly drawn)
- EC50 [5]: > 150 µM (not active)
- EC50 [6]: 16.4 µM (active)
- EC50 [7]: 4.77 µM (active)

Compound: OCCCn1c(C(CO)Nc2nc(-c3ccc(Cl)cc3)cs2)nc2ccccc21 (stereo not drawn)
- CC50 [3]: 15.5 µM (active)

Compound: COC(=O)CSc1nnc(-c2cnccn2)n1C
- EC50 [5]: > 150 µM (not active)
- EC50 [6]: > 150 µM (not active)
- EC50 [7]: > 150 µM (not active)

Compound: O=C(Cc1cccs1)Nc1cccc(-c2nnc(-c3ccco3)o2)c1
- CC50 [3]: > 12.5 µM (active)

Compound: O=C(Nc1cccc(F)c1)N1CC2(CCN(S(=O)(=O)c3ccccc3)CC2)C1
- AC50 [11]: 15.8 µM (inconclusive)
- AC50 [1]: 39.8 µM (inconclusive)
- AC50 [2]: 20 µM (inconclusive)

Compound: COc1ccc(C2CC(c3ccccc3)=NN2c2ccc(S(N)(=O)=O)cc2)cc1OC (stereo not drawn)
- CC50 [3]: 24.2 µM (active)

Compound: Cc1cc2oc(=O)cc(CN(C)Cc3ccccc3Cl)c2cc1C
- EC50 [5]: 14.4 µM (active)
- EC50 [6]: > 150 µM (not active)
- EC50 [7]: 20.8 µM (active)

Compound: Cc1ccc(C2=C(Cl)C(=O)C(c3ccc(C)cc3)=C(Cl)C2=O)cc1
- AC50 [11]: 3.98 µM (inconclusive)
- AC50 [1]: 3.98 µM (inconclusive)

Compound: Cc1ccc2nc(-c3ccc(NS(=O)(=O)c4ccc(F)c(F)c4)cc3)sc2c1
- EC50 [5]: 5.1 µM (active)
- EC50 [6]: 5.92 µM (active)
- EC50 [7]: 2.65 µM (active)

Compound: O=C(CSc1nnc(-c2ccccn2)n1Cc1ccco1)c1ccc(-c2ccccc2)cc1
- CC50 [3]: 34.3 µM (active)

Compound: O=C(NC(=S)Nc1ccc(Br)cn1)c1cncc(Br)c1
- AC50 [11]: 35.5 µM (inconclusive)
- AC50 [1]: 0.631 µM (inconclusive)
- AC50 [2]: 0.447 µM (inconclusive)

Compound: CC(=O)NCCn1c(SCC(=O)NCc2ccco2)nc2ccccc2c1=O
- AC50 [1]: 0.0447 µM (inconclusive)
- AC50 [2]: 25.1 µM (inconclusive)
- EC50 [12]: 9.17 µM (active)
- AC50 [13]: 7.22 µM (active)

Compound: O=C(Nc1cc(Cl)cc(Cl)c1)Nc1cnccn1
- EC50 [5]: > 150 µM (not active)
- EC50 [6]: > 150 µM (not active)
- EC50 [7]: 7.66 µM (active)

Compound: CCC1=NN2C(=N)/C(=C/c3ccc(OS(=O)(=O)c4ccccc4)cc3)C(=O)N=C2S1
- CC50 [3]: > 50 µM (active)

Compound: O=C1CCC(C2CCc3cc(O)ccc3C2)C1 (stereo not drawn)
- IC50 [4]: 70.4 µM (active)

Compound: COc1cccc(/C=N/NC(=O)c2cc(-c3cccn3C)[nH]n2)c1
- AC50 [1]: 0.00794 µM (inconclusive)

Compound: CCOc1cc(/C=N/NC(=O)C(=O)NCc2cccnc2)ccc1O
- IC50 [4]: 54.5 µM (active)

Compound: CN(C)c1ccc(-c2ccc3ncnc(NCc4ccccc4)c3c2)cc1
- AC50 [1]: 12.6 µM (inconclusive)
